Assay results reported in US8426604B2 (Janssen Pharmaceutica NV, priority 2010, dated 2013).

Assays:
[1] = system: Zucker fa/fa male rats; assay: Zucker fa/fa Rat Model Assay; format: in vivo; details: dosed orally once a day for 4 days, blood collected at day 5
Text: Zucker fa/fa is a monogenic model of frank diabetes due to a mutation on the fa gene truncating the leptin receptor and preventing its interaction with its peptide hormone. This mutation results in a hyperphagic phenotype and the rodent develops obesity, hyperlipidemia, fasting hyperglycemia and insulin resistance. Zucker fa/fa male rats were received at four weeks of age and allowed to acclimate for one week. At five weeks of age the animals were single housed in cages in a temperature-controlled room with 12-hour light/dark cycle. The rats were allowed ad libitum access to water and food and throughout the study were maintained on a Purina 5008 diet. Animals were sorted based primarily on fed insulin levels and circulating triglycerides. Animals were dosed orally once a day in the morning for 4 days. The vehicle used was either 20% HPβCD (Hydroxypropyl Beta Cyclodextrin) or 15% Vitamin E/30% PEG-400 (Polyethylene Glycol 400). Fed insulin and triglycerides were measured using blood collected from the tail vein at day 5. Serum plasma samples were prepared by centrifugation in EDTA (Ethylenediaminetetraacetic acid) containing tubes, transferred into 96 well plates and stored at −80° C.

[2] = biological target: T1, ERR1 (also known as ERR-α or ERR-1) (Homo sapiens, UniProt P11474); assay: TR-FRET assay (disruption of co-activator peptide binding); format: biochemical; details: 6His-tagged ERR1LBD, GST-hSRC2 co-activator peptide; average of 3 independent experiments
T1 sequence (P11474 193-421 limits assumed): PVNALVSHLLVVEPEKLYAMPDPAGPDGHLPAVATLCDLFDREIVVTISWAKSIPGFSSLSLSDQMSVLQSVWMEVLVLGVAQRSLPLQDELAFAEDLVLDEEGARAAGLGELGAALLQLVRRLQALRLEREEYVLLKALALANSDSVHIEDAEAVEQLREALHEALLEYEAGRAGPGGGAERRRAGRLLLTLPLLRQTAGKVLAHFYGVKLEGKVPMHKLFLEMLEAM
Method: Time-Resolved Fluorescence Resonance Energy Transfer (TR-FRET) experiments were performed to examine the functional response of ERR1 (also known as ERR-α or ERR-1) ligands. The TR-FRET assay described herein relied on the conformation of ERR1 for binding to a co-activator peptide: when a test compound binds to ERR1 and alters its conformation, it can disrupt the binding of the co-activator peptide. The components of this homogeneous secondary assay included: the ^6His-tagged-ERR1LBD, a GST-labeled-hSRC2 co-activator polypeptide and a fluorescent donor/acceptor pair from CIS bio international htrf/bioassays (Bedford, Mass.) using both an α-GST Europium Cryptate (Eu) label and an α^6His-XL665 (allophycocyanin) fluorophore.
For TR-FRET measurements, the reaction was buffered in 25 mM Tris pH 8, 2.5 mM Hepes, 20 mM KCl, 1 mM DTT, and 0.05 mg/mL BSA (-lipids). The final concentrations of reagents were 6 nM of ERR1LBD, 6 nM GST-SRC-2 peptide, 30 nM Eu cryptate, and 7.5 nM XL665. Reactions were allowed to reach equilibrium at 25° C. for 4-18 hours before collecting data on the Analyst from LJL Biosystems (Molecular Devices Sunnyvale, Calif.). As a time-resolved method, the samples were excited at […] and emission was collected for 1 ms at both 615 and 665 nm with delays of 400 and 75 μs, respectively. Dose response curves were fitted using a hyperbolic equation and the data reported is the average of 3 independent experiments.

SMILES | % Lowering Fed Insulin Levels [1] | % Lowering Fed Triglyceride Levels [1] | EC50 [2]
CN(C1=NC(=O)/C(=C/c2ccc3c(cnn3Cc3ccc(Cl)cc3C(F)(F)F)c2)S1)[C@@H](CO)C(=O)O [Compound 15, 2S-({5-[1-(4-Chloro-2-trifluoromethyl-benzyl)-1H-indazol-5-ylmethylene]-4-oxo-4,5-dihydro-thiazol-2-yl}-methyl-amino)-3-hydroxy-propionic acid] | 40% | 41% | 23 nM
CN1CCC(N(C)C2=NC(=O)/C(=C/c3ccc4c(cnn4Cc4ccc(C(F)(F)F)cc4C(F)(F)F)c3)S2)CC1 [Compound 20, 5-[1-(2,4-Bis-trifluoromethyl-benzyl)-1H-indazol-5-ylmethylene]-2-[methyl-(1-methyl-piperidin-4-yl)-amino]-thiazol-4-one] | 40% | 34% | 18 nM
CN(C1=NC(=O)/C(=C/c2ccc3c(cnn3Cc3ccc(C(F)(F)F)cc3C(F)(F)F)c2)S1)C1CCN(CC(N)=O)CC1 [Compound 52, 2-(4-{[-5-({1-[2,4-Bis(trifluoromethyl)benzyl]-1H-indazol-5-yl}methylidene)-4-oxo-4,5-dihydro-1,3-thiazol-2-yl](methyl)amino}piperidin-1-yl)acetamide] | 30% | 38% | 13 nM
COC[C@@H]1CC(N(C)C2=NC(=O)/C(=C/c3ccc4c(cnn4Cc4ccc(C(F)(F)F)cc4C(F)(F)F)c3)S2)CN1 (stereo partly drawn) [Compound 40, 5-[1-(2,4-Bis-trifluoromethyl-benzyl)-1H-indazol-5-ylmethylene]-2-[(5-methoxymethyl-pyrrolidin-3-yl)-methyl-amino]-thiazol-4-one] | – | – | 21 nM
CN(C1=NC(=O)/C(=C/c2ccc3c(cnn3Cc3ccc(Cl)cc3C(F)(F)F)c2)S1)[C@H]1CCN(CC(N)=O)C[C@H]1F [Compound 55, 2-[(3R,4S)-4-{[-5-({1-[4-Chloro-2-(trifluoromethyl)benzyl]-1H-indazol-5-yl}methylidene)-4-oxo-4,5-dihydro-1,3-thiazol-2-yl](methyl)amino}-3-fluoropiperidin-1-yl]acetamide] | – | – | 13 nM
CN(CC(O)CO)C1=NC(=O)/C(=C/c2ccc3c(cnn3Cc3ccc(Cl)cc3C(F)(F)F)c2)S1 (stereo not drawn) [Compound 6, 5-[1-(4-Chloro-2-trifluoromethyl-benzyl)-1H-indazol-5-ylmethylene]-2-[(2,3-dihydroxy-propyl)-methyl-amino]-thiazol-4-one] | – | – | 3.6 nM
CN(C1=NC(=O)/C(=C/c2ccc3c(cnn3Cc3ccc(C(F)(F)F)cc3C(F)(F)F)c2)S1)[C@@H]1CCN(CC(N)=O)C1 [Compound 56, 2-[(3R)-3-{[5-({1-[2,4-Bis(trifluoromethyl)benzyl]-1H-indazol-5-yl}methylidene)-4-oxo-4,5-dihydro-1,3-thiazol-2-yl](methyl)amino}pyrrolidin-1-yl]acetamide] | – | – | 15 nM
N#Cc1ccc(Cn2ncc3cc(/C=C4\SC(N(CCO)CCO)=NC4=O)ccc32)c(C(F)(F)F)c1 [Compound 3, 4-(5-{2-[Bis-(2-hydroxy-ethyl)-amino]-4-oxo-4H-thiazol-5-ylidenemethyl}-indazol-1-ylmethyl)-3-trifluoromethyl-benzonitrile] | – | – | 120 nM
CN(CCN1CCCC1)C1=NC(=O)/C(=C/c2ccc3c(cnn3Cc3ccc(Cl)cc3C(F)(F)F)c2)S1 [Compound 18, 5-[1-(4-Chloro-2-trifluoromethyl-benzyl)-1H-indazol-5-ylmethylene]-2-[methyl-(2-pyrrolidin-1-yl-ethyl)amino]-thiazol-4-one] | – | – | 13 nM
CN(CC(O)CN)C1=NC(=O)/C(=C/c2ccc3c(cnn3Cc3ccc(Cl)cc3C(F)(F)F)c2)S1 (stereo not drawn) [Compound 45, 2-[(3-Amino-2-hydroxy-propyl)-methyl-amino]-5-[1-(4-chloro-2-trifluoromethyl-benzyl)-1H-indazol-5-ylmethylene]-thiazol-4-one] | – | – | 120 nM
CN(CC(=O)O)C1=NC(=O)/C(=C/c2ccc3c(cnn3Cc3ccc(C(C)(C)O)cc3C(F)(F)F)c2)S1 [Compound 61, [(5-{1-[4-(1-Hydroxy-1-methyl-ethyl)-2-trifluoromethyl-benzyl]-1H-indazol-5-ylmethylene}-4-oxo-4,5-dihydro-thiazol-2-yl)-methyl-amino]-acetic acid] | – | – | 1200 nM
CN(C)CCN(C)C1=NC(=O)/C(=C/c2ccc3c(cnn3Cc3ccc(C(F)(F)F)cc3C(F)(F)F)c2)S1 [Compound 2, 5-[1-(2,4-Bis-trifluoromethyl-benzyl)-1H-indazol-5-ylmethylene]-2-[(2-dimethylamino-ethyl)-methyl-amino]-thiazol-4-one] | – | – | 7 nM
CN1CCC(N(C)C2=NC(=O)/C(=C/c3ccc4c(cnn4Cc4ccc(Cl)cc4C(F)(F)F)c3)S2)C1 (stereo not drawn) [Compound 35, 5-[1-(4-Chloro-2-trifluoromethyl-benzyl)-1H-indazol-5-ylmethylene]-2-[methyl-(1-methyl-pyrrolidin-3-yl)-amino]-thiazol-4-one] | – | – | 18 nM
CC(C(N)=O)N1CCC(N(C)C2=NC(=O)/C(=C/c3ccc4c(cnn4Cc4ccc(C(F)(F)F)cc4C(F)(F)F)c3)S2)CC1 (stereo not drawn) [Compound 53, 2-(4-{[-5-({1-[2,4-Bis(trifluoromethyl)benzyl]-1H-indazol-5-yl}methylidene)-4-oxo-4,5-dihydro-1,3-thiazol-2-yl](methyl)amino}piperidin-1-yl)propionamide] | – | – | 24 nM
COCCN(CCOC)C1=NC(=O)/C(=C/c2ccc3c(cnn3Cc3ccc(Cl)cc3C(F)(F)F)c2)S1 [Compound 14, 2-[Bis-(2-methoxy-ethyl)-amino]-5-[1-(4-chloro-2-trifluoromethyl-benzyl)-1H-indazol-5-ylmethylene]-thiazol-4-one] | – | – | 3.3 nM
